Source: article PMC12410758, “A novel sulfamoylphenyl-dihydro-thiadiazole derivative as a dual EGFR and carbonic anhydrase inhibitor for cancer therapy” (PLOS One, 2025)
Where two headings read alike, the source gives them in different places.

Columns and labels:
MCF-7 cells = assay: MTT cytotoxicity, MCF-7; conditions: for Average of Relative viability of cells (%) MCF-7: 24 h; for IC50: read-out: In vitro Cytotoxicity IC50 (µM) MCF-7, mean ± SEM of three independent experiments
Procedure: (§1) The cell lines mentioned above were used to determine the inhibitory effects of compounds on cell growth
(§2) using the MTT assay. This colorimetric assay is based on the conversion of the yellow tetrazolium bromide (MTT) to a purple formazan derivative by mitochondrial succinate dehydrogenase in viable cells. Cell lines
(§3) Antibiotics added were 100 units/ml penicillin and 100µg/ml streptomycin at 37 C in a 5% Co2 incubator. The cell lines were seedesin a 96-well
(§4) plate at a density of 1.0x10^4 cells/well. at 37 C for 48 h under 5% Co2. After incubation the cells were treated
(§5) with different concentration of compounds and incubated for 24 h. After 24 h of drug treatment, 20 µl of MTT solution at 5mg/ml was added and incubated for 4 h. Dimethyl sulfoxide (DMSO) in volume of 100 µl is
(§6) added into each well to dissolve the purple formazan formed. The colorimetric assay is measured and recorded
(§7) The relative cell viability in percentage was
(§8) calculated as (A570 of treated samples/A570 of untreated sample) X 100.

[1] = MTT safety assay, non-cancerous Vero cells; format: cell-based; conditions: African green monkey, mean ± SEM of three independent experiments, read-out: In vitro Cytotoxicity IC50 (µM) Vero
Procedure: The cell line (Vero) was obtained from ATCC via Holding company for biological products and vaccines
(VACSERA) , Cairo, Egypt.
The different cell line mentioned above were used to determine the inhibitory effects of compounds on c ell growth using the MTT assay. This colorimetric assay is based on the conversion of the yellow tetrazolium
bromide (MTT) to a purple formazan derivative by mitochondrial succinate dehydrogenase in viable cells.
Antibiotics added were 100
units/ml penicillin and 100µg/ml streptomycin at 37 C in a 5% Co2 incubator. The cellswere seedesin a 96-
well plate at a density of 1.0x10^4 cells/well.at 37 C for 48 h under 5% Co2. After incubation the cells were treated with different concentration of compounds and incubated for 24 h. After 24 h of drug treatment, 20 µl
of MTT solution at 5mg/ml was added and incubated for 4 h. Dimethyl sulfoxide(DMSO) in volume of 100µl
is added into each well to dissolve the purple formazan formed. The colorimetric assay is measured and
The relative cell viability in percentage
was calculated as (A570 of treated samples/A570 of untreated sample) X 100.

hCA_IX = molecular target: T1, hCA_IX (Homo sapiens, UniProt Q16790); assay: In vitro carbonic anhydrase (IX) inhibition (assay kit, BPS Bioscience); format: biochemical; conditions: mean ± SEM of three independent experiments
T1 construct: purchased BPS Bioscience, USA
Procedure: (§9) • The in vitro inhibitory activity of the tested compounds against EGFR was accomplished using EGFR
(§10) Kinase Assay Kit (BPS Bioscience, USA) at different dilutions of 1000, 300, 100, 30, 10, 3, 1, and 0.3 nM.
In vitro carbonic anhydrase inhibition

MDA-MB-231 cells [2] = assay: MTT cytotoxicity, MDA-MB-231; conditions: for Average of Relative viability of cells (%) MDA-231: 24 h; for IC50: read-out: In vitro Cytotoxicity IC50 (µM) MDA-231, mean ± SEM of three independent experiments
Procedure: as §1, §2, §3, §4, §5, §6, §7, §8

MDA-MB-231 cells [3] = assay: qRT-PCR of apoptotic markers in MDA-MB-231 cells; conditions: 16.13 µM, 72 h, control set to 1, mean ± SEM
Procedure: Quantitative Reverse Transcription-Poly¬merase Chain Reaction (qRT-PCR) Analysis
Cells were seeded in T-25 cm2 tissue culture flasks 24h before treatment with DMSO vehicle (0.01%) or
Total RNA was extracted, reverse transcribed, and assayed
for BAX, Bcl-2, caspases-8, and caspases-9 genes expression by quantitative RT-PCR. ß-actin serves as the
housekeeping gene. The quantity of BAX, Bcl-2, Caspase-8 and Caspase-9 mRNA in control and compound
Total RNA from vehicle-treated control
(0.01% DMSO) and 14-treated MDA-231 cells were extracted as-per the manufacturer instructi¬ons (RNeasy
mini kit, Qiagen, Germany). After RNA extraction, cDNA was prepared using the Revert Aid First Strand
cDNA Synthesis kit (Thermo Scientific, USA). Amplification of target cDNA for apoptosis markers and ß-
actin [as a normalization (housekeeping) gene] was done using one-step RT-PCR SYBR® Green kit Master Mix (Bio‐Rad Laboratories, USA) on Rotor-Gene Q real-time PCR thermal cycler instrument. cDNA (2 μl
aliquots) was mixed with 1 μl of forward primer, 1 μl reverse primer (Table below), 10 μl master mixture,
and the reaction volume was completed to 20 μl with nuclease-free water. All experiments were performed in

EGFR [4] = molecular target: T2, EGFR (Homo sapiens, UniProt P00533); assay: In vitro EGFR inhibition (EGFR Kinase Assay Kit, BPS Bioscience); format: biochemical; conditions: mean ± SEM of three independent experiments
T2 construct: purchased BPS Bioscience, USA
T2 sequence (P00533 25-1210): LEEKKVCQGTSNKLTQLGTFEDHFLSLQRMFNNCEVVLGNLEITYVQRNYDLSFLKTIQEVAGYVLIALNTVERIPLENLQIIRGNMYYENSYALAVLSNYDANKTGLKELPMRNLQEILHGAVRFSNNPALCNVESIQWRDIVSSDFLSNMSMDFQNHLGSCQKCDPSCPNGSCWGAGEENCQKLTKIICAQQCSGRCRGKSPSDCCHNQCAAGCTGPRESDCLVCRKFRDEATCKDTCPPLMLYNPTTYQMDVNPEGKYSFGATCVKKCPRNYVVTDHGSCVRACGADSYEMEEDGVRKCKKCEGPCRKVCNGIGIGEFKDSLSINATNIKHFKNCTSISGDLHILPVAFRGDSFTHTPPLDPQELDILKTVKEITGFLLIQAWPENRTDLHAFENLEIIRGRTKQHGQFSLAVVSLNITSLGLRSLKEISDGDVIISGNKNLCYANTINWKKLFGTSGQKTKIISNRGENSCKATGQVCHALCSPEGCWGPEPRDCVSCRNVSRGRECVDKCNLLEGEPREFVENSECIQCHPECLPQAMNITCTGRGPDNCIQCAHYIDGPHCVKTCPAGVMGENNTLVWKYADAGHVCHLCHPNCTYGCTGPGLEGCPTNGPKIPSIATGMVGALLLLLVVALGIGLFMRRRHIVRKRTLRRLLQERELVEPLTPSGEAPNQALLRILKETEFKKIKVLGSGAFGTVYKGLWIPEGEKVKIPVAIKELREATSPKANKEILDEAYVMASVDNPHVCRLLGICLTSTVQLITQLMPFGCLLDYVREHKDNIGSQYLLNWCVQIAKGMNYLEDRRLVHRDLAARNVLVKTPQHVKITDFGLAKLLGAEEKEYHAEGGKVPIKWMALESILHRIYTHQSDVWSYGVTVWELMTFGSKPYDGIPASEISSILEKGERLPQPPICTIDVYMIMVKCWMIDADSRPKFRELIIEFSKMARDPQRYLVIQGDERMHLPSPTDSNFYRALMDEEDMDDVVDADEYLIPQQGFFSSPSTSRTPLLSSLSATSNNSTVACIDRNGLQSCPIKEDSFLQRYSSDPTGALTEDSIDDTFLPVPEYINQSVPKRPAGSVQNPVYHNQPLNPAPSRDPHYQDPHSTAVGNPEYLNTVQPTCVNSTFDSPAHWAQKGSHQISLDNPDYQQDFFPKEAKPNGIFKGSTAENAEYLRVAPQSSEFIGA
Procedure: as §9, §10
In vitro carbonic anhydrase inhibition

MDA-MB-231 cells [5] = assay: Cell cycle analysis, PI flow cytometry; format: cell-based; conditions: 16.13 µM, 48 h
hCA_XII = molecular target: T3, hCA_XII (Homo sapiens, UniProt O43570); assay: In vitro carbonic anhydrase (XII) inhibition (assay kit, BPS Bioscience); format: biochemical; conditions: mean ± SEM of three independent experiments
T3 construct: purchased BPS Bioscience, USA
T3 sequence (O43570 25-354): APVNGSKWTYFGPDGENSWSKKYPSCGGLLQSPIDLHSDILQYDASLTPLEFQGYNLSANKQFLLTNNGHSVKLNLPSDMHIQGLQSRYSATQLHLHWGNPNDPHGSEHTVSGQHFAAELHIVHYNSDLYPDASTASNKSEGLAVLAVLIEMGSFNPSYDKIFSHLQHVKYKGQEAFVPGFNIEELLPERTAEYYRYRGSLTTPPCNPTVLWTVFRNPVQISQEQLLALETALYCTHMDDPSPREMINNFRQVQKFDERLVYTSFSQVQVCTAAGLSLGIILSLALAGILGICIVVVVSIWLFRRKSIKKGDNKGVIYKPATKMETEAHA

MDA-MB-231 cells [6] = assay: Apoptosis analysis, Annexin V-FITC/PI flow cytometry
Procedure: Apoptosis detection was carried out using Annexin V fluorescein isothiocyanate (V-FITC)/PI kit according to the reported procedures. MDA-MB-231cells cells were seeded and incubated for 24 h, then treated with
The cells were then collected, washed 3 times with PBS, fixed with ice-
cold absolute ethanol (70%) and stained with Annexin-V-FITC/propidium iodide (PI) using a double staining
kit for 20 min in the dark. Epics XL-MCL™ Flow Cytometer was used to evaluate the apoptosis.

MDA-MB-231 cells [7] = test system: MDA-MB-231 cells; parameters: method as in PMID 35896557; conditions: cited from earlier work
EGFR [8] = molecular target: T2, EGFR; parameters: method as in PMID 35896557; conditions: read-out: EGFR inhibition IC50; cited from earlier work
MDA-MB-231 = test system: MDA-MB-231; parameters: method as in PMID 35896557; conditions: read-out: anti-proliferative IC50, MDA-MB-231; cited from earlier work
T-47D = test system: T-47D; parameters: method as in PMID 35896557; conditions: read-out: anti-proliferative IC50, T-47D; cited from earlier work

**Q.** What does the source list for `CCOC(=O)c1nn(-c2ccc(S(N)(=O)=O)cc2)/c(=N/N=C(\C)c2ccc(NC(C)=O)cc2)s1` [Compound 14, Ethyl (Z)-5-(((E)-1-(4-acetamidophenyl)ethylidene)hydrazineylidene)-4-(4-sulfamoylphenyl)-4,5-dihydro-1,3,4-thiadiazole-2-carboxylate]?
**A.** Average of Relative viability of cells (%) MCF-7 (MCF-7 cells; 1.56 µM): 100%; Average of Relative viability of cells (%) MCF-7 (MCF-7 cells; 3.125 µM): 90.3%; Average of Relative viability of cells (%) MCF-7 (MCF-7 cells; 6.25 µM): 71.7%; Average of Relative viability of cells (%) MCF-7 (MCF-7 cells; 12.5 µM): 57.6%; Average of Relative viability of cells (%) MCF-7 (MCF-7 cells; 25 µM): 46.5%; Average of Relative viability of cells (%) MCF-7 (MCF-7 cells; 50 µM): 35.1%; Average of Relative viability of cells (%) MCF-7 (MCF-7 cells; 100 µM): 24.4%; IC50 (MCF-7 cells): 22.6 ± 1.5 µM; IC50 at 24 h [1]: 148.3 ± 1.22 µM; IC50 (hCA_IX): 79 ± 0.3 nM; Average of Relative viability of cells (%) MDA-231 (MDA-MB-231 cells [2]; 1.56 µM): 100%; Average of Relative viability of cells (%) MDA-231 (MDA-MB-231 cells [2]; 3.125 µM): 86.3%; Average of Relative viability of cells (%) MDA-231 (MDA-MB-231 cells [2]; 6.25 µM): 69.9%; Average of Relative viability of cells (%) MDA-231 (MDA-MB-231 cells [2]; 12.5 µM): 51.0%; Average of Relative viability of cells (%) MDA-231 (MDA-MB-231 cells [2]; 25 µM): 38.6%; Average of Relative viability of cells (%) MDA-231 (MDA-MB-231 cells [2]; 50 µM): 26.1%; Average of Relative viability of cells (%) MDA-231 (MDA-MB-231 cells [2]; 100 µM): 18.5%; IC50 (MDA-MB-231 cells [2]): 16.1 ± 1.2 µM; Gene expression (Fold Change) BAX (MDA-MB-231 cells [3]): 3.06 ± 0.18 Fold Change; Gene expression (Fold Change) BAX/Bcl-2 ratio (MDA-MB-231 cells [3]): 5.56 ± 0.69 Fold Change; Gene expression (Fold Change) Bcl-2 (MDA-MB-231 cells [3]): 0.55 ± 0.05 Fold Change; Gene expression (Fold Change) Caspases-8 (MDA-MB-231 cells [3]): 2.37 ± 0.07 Fold Change; Gene expression (Fold Change) Caspases-9 (MDA-MB-231 cells [3]): 2.26 ± 0.15 Fold Change; IC50 (EGFR [4]): 10.1 ± 0.29 nM; Cell cycle distribution (%) % G2/M (MDA-MB-231 cells [5]; untreated 10.59): 7.94%; Cell cycle distribution (%) %Sub-G1 (MDA-MB-231 cells [5]; untreated 19.48): 19.18%; Cell cycle distribution (%) %S (MDA-MB-231 cells [5]; untreated 24.95): 23.78%; Cell cycle distribution (%) %G1 (MDA-MB-231 cells [5]; untreated 44.98): 49.10%; IC50 (hCA_XII): 58 ± 0.3 nM; Apoptosis Late (MDA-MB-231 cells [6]; 16.13 µM, 48 h, MDA-MB-231, untreated 0.32): 58.27%; Necrosis (MDA-MB-231 cells [6]; 16.13 µM, 48 h, MDA-MB-231, untreated 0.45): 0.03%; Apoptosis Early (MDA-MB-231 cells [6]; 16.13 µM, 48 h, MDA-MB-231, untreated 3.84): 22.50%; viability at 16.13 µM (MDA-MB-231 cells [6]; Homo sapiens, MDA-MB-231, 48 h, read-out: Viable cells): 19.2%

**Q.** Which apoptosis induction (MDA-MB-231 cells [7]) does the source give for `COc1ccc(/C=C2/SC(N3N=C(c4cccc5ccccc45)CC3c3ccc(F)cc3)=NC2=O)cc1O` (centres unmarked) [compound III] here?
**A.** induced apoptosis

**Q.** What about the “cell cycle arrest phase” value (MDA-MB-231 cells [7]) of the same compound?
**A.** G2/M phase

**Q.** And the IC50 (EGFR [8])?
**A.** 267 nM

**Q.** What about the IC50 (MDA-MB-231) of the same compound?
**A.** 3.14 µM

**Q.** And the IC50 (T-47D)?
**A.** 620 nM

**Q.** With `CC(=O)Nc1nnc(S(N)(=O)=O)s1` [Acetazolamide, reference compound] as the compound, how does the IC50 (MCF-7 cells) read?
**A.** 7.26 ± 0.3 µM

**Q.** What about the IC50 at 24 h [1] of the same compound?
**A.** 77.57 ± 0.57 µM

**Q.** What about the IC50 (MDA-MB-231 cells [2]) of the same compound?
**A.** 7.64 ± 0.4 µM
